The results in this text go back to US20260273074A1, “FERRITIN-TARGETING PROTACS AND METHODS OF INDUCING PYROPTOSIS” (Wisconsin Alumni Research Foundation, priority 2023, published 2026).

Data set [1] deals with T1, ferritin (Mus musculus).
T1 construct: ferritin expression levels in B16F10 cells were evaluated; endogenous in cells; host or cells: B16F10 (murine melanoma)
Description: Western blot of ferritin expression (ferritin degradation) in B16F10 cells. The class given is cell-based, murine. Conditions: Epox 1 μM pretreatment 1 h; for effect on DeFer-2-mediated ferritin degradation: DeFer-2 0.5 μM 12 h, VHL ligand 50 μM in excess. The procedure:
Western blot analysis: After various treatments, ferritin expression levels in B16F10 cells were evaluated to investigate the DeFer-2-mediated ferritin degradation. Briefly, B16F10 cells were seeded in 6-well culture plates (5×10^4 cells per well) and cultured for 24 h. Then the medium in the corresponding wells except the negative control was replaced with 1 mL of medium containing ferritin degraders, albumin nanoparticles, the epimer formulations, the combination of VHL ligand and oleic acid, or the combination of the degrader and VHL ligand at the indicated concentrations. […] The lysates were centrifuged at 12,000 rpm for 10 min at 4° C., followed by quantification of the total proteins in the supernatant through the bicinchoninic acid assay (BCA) assay. Afterward, the proteins in the supernatant were mixed with the loading buffer and heated at 95° C. for 15 min. Equal amounts of proteins from different samples were loaded into 15% SDS-polyacrylamide gel (20 μg protein per lane) to separate target proteins. After separation, proteins were transferred to polyvinylidene fluoride (PVDF) membranes before the membranes were blocked with 5% nonfat milk in PBST. Then proteins were incubated with primary antibodies overnight at 4° C., followed by the incubation with the goat-anti-rabbit IgG H&L (HRP) secondary antibodies at room temperature for 2 h. Finally, the bands were detected with electrochemiluminescence (ECL) western blot substrate for imaging, and ImageJ software was used for quantification.
(Immunoblotting shows a protein as a band on a membrane.)

The test system of data set [2] is B16F10 cells. Nature of the data set: Cell viability evaluation by CCK-8 assay. Conditions: B16F10 cells, DeFer-2 5 μM; DFOM 25 μM, Z-VAD 10 μM, NSCI 0.1 μM, VX-765 10 μM. As to the method:
Cell viability evaluation: The cell viability of B16F10 cells treated with ferritin degraders with or without various inhibitors was evaluated by CCK-8 assay. Briefly, 5×10^3 cells were seeded in 96-well plates and cultured for 24 h for attachment. Then the medium in the corresponding wells, except the control, was replaced with 100 μL of medium containing the indicated degrader formulations with concentrations of 0.008, 0.04, 0.2, 1, and 5 μM. After incubation for 24 or 48 h, CCK-8 reagent was added and interacted with cells at 37° C. for 1 h. The absorbance was measured by a microplate reader (Infinite M Plex) at the detection wavelength of 450 nm.
For blocking assays with Z-VAD, NSCI, and VX-765, 5×10^3 cells were seeded in 96-well plates and cultured 24 h for attachment. Then the medium in the corresponding wells, except the control, was replaced with 100 μL of medium containing Z-VAD (10 μM), NSCI (0.1 μM), or VX-765 (10 μM). […] Following another 24-h incubation, CCK-8 reagents were added and interacted with cells at 37° C. for 1 h. The absorbance was measured by a microplate reader (Infinite® M Plex) at the detection wavelength of 450 nm. For blocking assays with DFOM, 5×10^3 cells were seeded in 96-well plates and cultured 24 h for attachment. […] Following another 20-h incubation, CCK-8 reagents were added and interacted with cells at 37° C. for 1 h. The absorbance was measured by a microplate reader (Infinite® M Plex) at the detection wavelength of 450 nm.

Data set [3] deals with B16F10 cells. Description: LDH release assay. In kind it is cell-based, murine. Conditions: inhibitor pretreatment 4 h, DeFer-2 5 μM, NSCI 0.1 μM, VX-765 10 μM. As to the method:
After incubation for 24 h, the cell samples were used to measure LDH release according to the manufacturer's instructions of CytoScan™ LDH Cytotoxicity Assay kit from G-Biosciences (St. Louis, MO, USA).
Following another 24-h incubation, the cell samples were used to measure LDH release according to the manufacturer's instructions of CytoScan™ LDH Cytotoxicity Assay kit from G-Biosciences (St. Louis, MO, USA).

Data set [4] deals with cleaved caspase 3. Description: Western blot of cleaved caspase 3 in B16F10 cells. In kind it is cell-based, murine. Conditions: GSH pretreatment 4 h. As to the method:
(§1) As for the determination of cleaved-GSDME and cleaved-caspase-3, B16F10 cells were seeded in 6-well culture plates (2×10^5 cells per well) and cultured for 24 h. Then the medium in the corresponding wells except the negative control was replaced with 1 mL of medium containing ferritin degraders, albumin nanoparticles, or the degrader with inhibitors at the indicated concentrations. Incubation for another 6 or 8 h was used to test the cleaved-caspase-3, while treatment for another 16 or 20 h was used to test cleaved-GSDME. The following procedures were the same as mentioned above.

Data set [5] relates to GSDME-N. Description: Western blot of cleaved N-terminal GSDME (GSDME-N) in B16F10 cells. The class given is cell-based, murine. Conditions: GSH pretreatment 4 h. The procedure: as §1
The target of data set [6] is T2, apoferritin from equine spleen (Equus caballus, UniProt P02791).
T2 construct: the apoferritin from equine spleen (A3660, Sigma-Aldrich) that is not combined with iron was used; purchased Sigma-Aldrich A3660; host or cells: equine spleen (tissue-derived)
T2 sequence (P02791 2-175 limits assumed): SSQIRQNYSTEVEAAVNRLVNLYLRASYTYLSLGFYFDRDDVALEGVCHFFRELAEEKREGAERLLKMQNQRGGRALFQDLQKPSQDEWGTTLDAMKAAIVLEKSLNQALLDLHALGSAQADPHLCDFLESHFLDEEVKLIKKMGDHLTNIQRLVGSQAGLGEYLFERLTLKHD
Description: Isothermal titration calorimetry (ITC) binding to ferritin. The procedure:
As for the ferritin proteins, the apoferritin from equine spleen (A3660, Sigma-Aldrich) that is not combined with iron was used. Before the ITC test, 1 mL of apoferritin in glycerol solution (50% glycerol and 0.075 M NaCl) was placed in a dialysis bag with a molecular weight cut-off of 3 kDa. The dialysis bags were then immersed in the prepared solution (20 mM Tris-HCl, pH 8.5, and 130 mM NaCl) and stirred at room temperature. The dialysis buffer was changed every 24 h for three times, and the last buffer was collected and 0.05% DMSO was added to serve as the ITC buffer. As for the oleic acid, 12 μM apoferritin in the ITC buffer was placed in the ITC cell, and the syringe was full of 250 μM oleic acid in the same ITC buffer. Besides the first injection with 5 μL of the oleic acid solution, 18 aliquots with 10 μL of the oleic acid solution were titrated into the apoferritin solution with a time interval of 300 s. […] Besides the first injection with 1 μL of the apoferritin solution, 25 aliquots were titrated with a time interval of 300 s. Raw data were corrected for control titrations (the solution in the syringe into the blank ITC buffer in the cell) and integrated using Origin 7.0 (MicroCal). Binding kinetics parameters, including N, Kd, ΔH, and ΔS, were calculated using a single-class binding site model.
For orientation: ITC needs no label: the signal is the heat of the interaction.

Where a SMILES comes first, the peptide text is derived from it. The star is where a group is joined. Cbz = O=C(OCc1ccccc1)*; CH2F = FC*

Usually Kd stands for the concentration at which binding is half-saturated.

On to `CC[C@H](C)[C@H](NC(=O)[C@H]([C@@H](C)CC)N(C)C(C)=O)C(=O)N[C@H](C(=O)N[C@@H](CC(C)C)C(=O)[C@@]1(C)CO1)[C@@H](C)O` [Epox, epoxomicin, reference compound], for which the “effect on aDeFer-2-mediated ferritin degradation” value in data set [1] (B16F10 cells, 0.5 μM, 12 h) is “compromised the aDeFer-2-mediated ferritin degradation”. For the same compound, the “effect on DeFer-2-mediated ferritin degradation” value in data set [1] is given as “inhibited”. On to `CCO[C@@H]1OC(=O)C[C@@H]1NC(=O)[C@@H]1CCCN1C(=O)[C@@H](NC(=O)c1ccc(N)c(Cl)c1)C(C)(C)C` [VX-765, reference compound], for which the “effect on DeFer-2-induced cytotoxicity / cell death” value in data set [2] was “remained unchanged”. For the same compound, the “effect on LDH release caused by DeFer-2” value in data set [3] is reported as “barely affected”. For the compound `Cc1ncsc1-c1ccc(CNC(=O)[C@@H]2C[C@@H](O)CN2C(=O)[C@@H](N)C(C)(C)C)cc1.Cl` [VHL ligand, (2S,4R)-1-((S)-2-amino-3,3-dimethylbutanoyl)-4-hydroxy-N-(4-(4-methylthiazol-5-yl)benzyl) pyrrolidine-2-carboxamide hydrochloride, reference compound], in data set [1], the “effect on DeFer-2-mediated ferritin degradation” value is “compromised”. As for `N[C@@H](CCC(=O)N[C@@H](CS)C(=O)NCC(=O)O)C(=O)O` [GSH, glutathione, reference compound], the “effect of pretreatment on DeFer-2-caused caspase 3 activation” value in data set [4] is “substantially reduced activated caspase 3”. Further, the “effect of pretreatment on DeFer-2-caused GSDME-N generation” value in data set [5] is “compromised by GSH pretreatment”.

With `CCCCCCCC/C=C\CCCCCCCC(=O)O` [OA, oleic acid, reference compound], in data set [6], the equilibrium dissociation constant (Kd) is 12.8 ± 2.89 µM. As to `COC(=O)C[C@H](NC(=O)[C@H](C)NC(=O)[C@@H](NC(=O)OCc1ccccc1)C(C)C)C(=O)CF` [Z-VAD, Z-VAD(OMe)-FMK, reference compound] (Cbz-Val-Ala-Asp(OMe)-CH2F), in data set [2], the “effect on DeFer-2-induced cytotoxicity / cell death” value was “compromised”.
